This is an account of results in patent publication US11242337B2, “Compounds useful for treating gastrointestinal tract disorders” (Ardelyx, Inc., priority 2017, dated 2022).

Experiment [1] has as its target T1, NHE3 (Homo sapiens, UniProt P48764).
T1 construct: expressed in transfected cells
T1 sequence (P48764 26-834): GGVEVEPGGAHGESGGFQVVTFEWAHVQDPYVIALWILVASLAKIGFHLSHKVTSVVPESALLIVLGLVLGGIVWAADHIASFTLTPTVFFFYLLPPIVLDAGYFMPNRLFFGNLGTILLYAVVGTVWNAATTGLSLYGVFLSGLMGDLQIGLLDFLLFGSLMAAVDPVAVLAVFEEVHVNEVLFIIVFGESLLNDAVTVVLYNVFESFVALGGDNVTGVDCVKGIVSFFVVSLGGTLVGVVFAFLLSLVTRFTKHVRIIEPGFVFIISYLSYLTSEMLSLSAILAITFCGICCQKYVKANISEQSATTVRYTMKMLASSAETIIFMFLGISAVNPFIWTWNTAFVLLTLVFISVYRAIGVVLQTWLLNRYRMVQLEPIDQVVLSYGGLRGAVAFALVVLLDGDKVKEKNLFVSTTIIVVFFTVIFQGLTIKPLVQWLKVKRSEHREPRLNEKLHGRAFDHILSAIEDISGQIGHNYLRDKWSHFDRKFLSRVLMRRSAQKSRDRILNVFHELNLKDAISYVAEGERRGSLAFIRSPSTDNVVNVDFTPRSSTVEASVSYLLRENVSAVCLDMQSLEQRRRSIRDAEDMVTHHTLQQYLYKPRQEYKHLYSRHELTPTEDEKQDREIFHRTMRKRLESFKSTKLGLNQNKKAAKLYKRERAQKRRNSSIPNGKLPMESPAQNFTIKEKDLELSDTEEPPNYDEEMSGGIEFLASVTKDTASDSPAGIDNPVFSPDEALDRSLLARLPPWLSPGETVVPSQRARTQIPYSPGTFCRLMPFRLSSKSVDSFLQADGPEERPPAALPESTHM
T1 sequence (Q99653 2-195 partner limits assumed): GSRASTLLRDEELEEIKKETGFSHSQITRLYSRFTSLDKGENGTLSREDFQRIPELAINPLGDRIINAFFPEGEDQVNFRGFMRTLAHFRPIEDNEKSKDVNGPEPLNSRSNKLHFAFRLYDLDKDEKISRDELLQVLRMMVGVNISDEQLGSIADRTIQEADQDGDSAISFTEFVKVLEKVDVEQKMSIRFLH
Put plainly: Cell-based assay of NHE-3 activity (persistent inhibition), human. The conditions noted are these: human Persistence, 60 min incubation then washout. Here is the method:
The ability of compounds to inhibit human and rat NHE-3-mediated Na^+ dependent H^+ antiport after application and washout was measured using a modification of the pH sensitive dye method described above. PS120 fibroblasts stably expressing human NHE3 and NHERF2 were obtained from Mark Donowitz (Baltimore, Md.). Opossum kidney (OK) cells were obtained from the ATCC and propagated per their instructions. The rat NHE-3 gene was introduced into OK cells via electroporation, and cells were seeded into 96 well plates and grown overnight. Medium was aspirated from the wells, cells were washed once with NaCl-HEPES buffer (100 mM NaCl, 50 mM HEPES, 10 mM glucose, 5 mM KCl, 2 mM CaCl2, 1 mM MgCl2, pH 7.4), then overlayed with NaCl-HEPES buffer containing 0-30 μM test compound. After a 60 min incubation at room temperature, the test drug containing buffer was aspirated from the cells. Following aspiration, cells were washed once with NaCl-HEPES buffer without drug, then incubated for 30 min at 37° C. with NH4Cl-HEPES buffer (20 mM NH4Cl, 80 mM NaCl, 50 mM HEPES, 5 mM KCl, 2 mM CaCl2, 1 mM MgCl2, pH 7.4) containing 5 μM BCECF-AM. Cells were washed once with Ammonium free, Na^+-free HEPES (100 mM choline, 50 mM HEPES, 10 mM glucose, 5 mM KCl, 2 mM CaCl2, 1 mM MgCl2, pH 7.4) and incubated in the same buffer for 10 minutes at room temperature to lower intracellular pH. NHE-3-mediated recovery of neutral intracellular pH was initiated (10 min after compound washout) by addition of Na-HEPES buffer. […] Changes in intracellular pH were monitored using a FLIPR Tetra® (Molecular Devices, Sunnyvale, Calif.) by excitation at λex 439 to 505 nm, and measuring BCECF fluorescence at λem 538 nm. The initial rate of the fluorescence ratio change was used as a measure of NHE-mediated Na^+/H^+ activity, and reported as the change in fluorescence ratio per minute.

The target in experiment [2] is T1, NHE3. Put plainly: Cell-based assay of NHE-3 activity (pre-incubation inhibition), human. The conditions noted are these: human Preincubation; for IC50 / pIC50: 0-30 μM test compound. Here is the method: Rat and human NHE-3-mediated Na^+-dependent H^+ antiport was measured using a modification of the pH sensitive dye method originally reported by Paradiso (Proc. Natl. Acad. Sci. USA. (1984) 81(23): 7436-7440). PS120 fibroblasts stably expressing human NHE3 and NHERF2 were obtained from Mark Donowitz (Baltimore, Md.). Opossum kidney (OK) cells were obtained from the ATCC and propagated per their instructions. The rat NHE-3 gene (GenBank M85300) was introduced into OK cells via electroporation, and cells were seeded into 96 well plates and grown overnight. Medium was aspirated from the wells then incubated for 30 min at 37° C. with NH4Cl-HEPES buffer (20 mM NH4Cl, 80 mM NaCl, 50 mM HEPES, 5 mM KCl, 2 mM CaCl2, 1 mM MgCl2, pH 7.4) containing 5 μM BCECF-AM. Cells were washed once with Ammonium free, Na^+-free HEPES (100 mM choline, 50 mM HEPES, 10 mM glucose, 5 mM KCl, 2 mM CaCl2, 1 mM MgCl2, pH 7.4) and incubated in the same buffer for 10 minutes at room temperature to lower intracellular pH with 0-30 μM test compound. […] Changes in intracellular pH were monitored using a FLIPR Tetra® (Molecular Devices, Sunnyvale, Calif.) by excitation at λex 439 to 505 nm, and measuring BCECF fluorescence at λem 538 nm. The initial rate of the fluorescence ratio change was used as a measure of NHE-mediated Na^+/H^+ activity, and reported as the change in fluorescence ratio per minute.

Structures can show the parent of a compound that is named as a salt.

Usually IC50 stands for the midpoint of a concentration-inhibition curve. Take `N[C@@H]1CCCN([C@H]2Cc3c(Cl)cc(Cl)cc3[C@@H]2Oc2ccc(S(=O)(=O)NCCCCCCCCNC(=O)NCCCCNC(=O)NCCCCCCCCNS(=O)(=O)c3ccc(O[C@H]4c5cc(Cl)cc(Cl)c5C[C@@H]4N4CCC[C@@H](N)C4)cc3)cc2)C1` [Example 62, 3-[8-[(4-[[(1S,2S)-2-[(3R)-3-Aminopiperidin-1-yl]-4,6-dichloro-2,3-dihydro-1H-inden-1-yl]oxy]benzene)sulfonamido]octyl]-1-[4-[([8-[(4-[[(1S,2S)-2-[(3R)-3-aminopiperidin-1-yl]-4,6-dichloro-2,3-dihydro-1H-inden-1-yl]oxy]benzene)sulfonamido]octyl]carbamoyl)amino]butyl]urea; bis(trifluoroacetic acid)]: on NHE3 [1], the “% inhibition” value is recorded as “A (NHE3 < 40%)” and the concentration for half-maximal inhibition (IC50) is more than 1000 nM. Moreover, on NHE3 [2], the “% inhibition” value is reported as “C (>70%)” and the half-inhibitory concentration (IC50) is less than 100 nM.
Consider `N[C@@H]1CCCN([C@H]2Cc3c(Cl)cc(Cl)cc3[C@@H]2Oc2ccc(S(=O)(=O)N3CC[C@H](OCCOCCNC(=O)NCCCCNC(=O)NCCOCCO[C@H]4CCN(S(=O)(=O)c5ccc(O[C@H]6c7cc(Cl)cc(Cl)c7C[C@@H]6N6CCC[C@@H](N)C6)cc5)C4)C3)cc2)C1` [Example 94, 3-[2-(2-[[(3S)-1-[(4-[[(1S,2S)-2-[(3R)-3-Aminopiperidin-1-yl]-4,6-dichloro-2,3-dihydro-1H-inden-1-yl]oxy]benzene)sulfonyl]pyrrolidin-3-yl]oxy]ethoxy)ethyl]-1-[4-([[2-(2-[[(3S)-1-[(4-[[(1S,2S)-2-[(3R)-3-aminopiperidin-1-yl]-4,6-dichloro-2,3-dihydro-1H-inden-1-yl]oxy]benzene)sulfonyl]pyrrolidin-3-yl]oxy]ethoxy)ethyl]carbamoyl]amino)butyl]urea], for which, at NHE3 [1], the “% inhibition” value is on record as “C (>70%)” and the pIC50 entry is recorded as “C (NHE3 pIC50 > 7)”. Further, at NHE3 [2], the “% inhibition” value is reported as “C (>70%)” and the pIC50 entry is “C (NHE3 pIC50 > 7)”.
For the molecule `Cc1cc(S(=O)(=O)NCCOCCOCCNC(=O)NCCCCNC(=O)NCCOCCOCCNS(=O)(=O)c2cc(C)c(O[C@H]3c4cc(Cl)cc(Cl)c4C[C@@H]3N(C)C)c(C)c2)cc(C)c1O[C@H]1c2cc(Cl)cc(Cl)c2C[C@@H]1N(C)C` [Example 80], on NHE3 [1], the “% inhibition” value is reported as “B (40-70%)” and the half-inhibitory concentration (IC50) was 100 to 1000 nM. At NHE3 [2], the “% inhibition” value is on record as “B (40-70%)” and the half-maximal inhibitory concentration (IC50) is 100 to 1000 nM.
Regarding `Cc1cc(S(=O)(=O)NCCOCCOCCNC(=O)NCCCCNC(=O)NCCOCCOCCNS(=O)(=O)c2ccc(O[C@H]3c4cc(Cl)cc(C#N)c4C[C@@H]3N3CCC[C@@H](N(C)C)C3)c(C)c2)ccc1O[C@H]1c2cc(Cl)cc(C#N)c2C[C@@H]1N1CCC[C@@H](N(C)C)C1` [Example 39], the “% inhibition” value on NHE3 [1] and at NHE3 [2] was “A (NHE3 < 40%)” throughout. The pIC50 entry at NHE3 [1] and against NHE3 [2] was “C (NHE3 pIC50 > 7)” each time.
On to `Cc1cc(S(=O)(=O)NCCOCCOCCNC(=O)NCCCCNC(=O)NCCOCCOCCNS(=O)(=O)c2cc(C)c(O[C@H]3c4cc(Cl)cc(Cl)c4C[C@@H]3N3CCC[C@@H](N)C3)c(F)c2)cc(F)c1O[C@H]1c2cc(Cl)cc(Cl)c2C[C@@H]1N1CCC[C@@H](N)C1` [Example 83, 1-[2-(2-[2-[(4-[[(1S,2S)-2-[(3R)-3-Aminopiperidin-1-yl]-4,6-dichloro-2,3-dihydro-1H-inden-1-yl]oxy]-3-fluoro-5-methylbenzene)sulfonamido]ethoxy]ethoxy)ethyl]-3-[4-([[2-(2-[2-[(4-[[(1S,2S)-2-[(3R)-3-aminopiperidin-1-yl]-4,6-dichloro-2,3-dihydro-1H-inden-1-yl]oxy]-3-fluoro-5-methylbenzene)sulfonamido]ethoxy]ethoxy)ethyl]carbamoyl]amino)butyl]urea; hydrochloride], for which, at NHE3 [1], the “% inhibition” value is given as “C (>70%)” and the IC50 was 100 to 1000 nM. Also, at NHE3 [2], the “% inhibition” value was “C (>70%)” and the pIC50 entry was “C (NHE3 pIC50 > 7)”.
Turning to `COc1cc(O[C@H]2c3cc(Cl)cc(Cl)c3C[C@@H]2N2CCC[C@@H](N)C2)ccc1S(=O)(=O)NCCOCCOCCNC(=O)NCCCCNC(=O)NCCOCCOCCNS(=O)(=O)c1ccc(O[C@H]2c3cc(Cl)cc(Cl)c3C[C@@H]2N2CCC[C@@H](N)C2)cc1OC` [Example 101, 1-[2-(2-[2-[(4-[[(1S,2S)-2-[(3R)-3-Aminopiperidin-1-yl]-4,6-dichloro-2,3-dihydro-1H-inden-1-yl]oxy]-2-methoxybenzene)sulfonamido]ethoxy]ethoxy)ethyl]-3-[4-([[2-(2-[2-[(4-[[(1S,2S)-2-[(3R)-3-aminopiperidin-1-yl]-4,6-dichloro-2,3-dihydro-1H-inden-1-yl]oxy]-2-methoxybenzene)sulfonamido]ethoxy]ethoxy)ethyl]carbamoyl]amino)butyl]urea], the “% inhibition” value at NHE3 [1] is “B (40-70%)”; at NHE3 [2] it was “C (>70%)”. The pIC50 entry against NHE3 [1] and at NHE3 [2] was “C (NHE3 pIC50 > 7)” throughout.
As to `Cc1cc(S(=O)(=O)NCCOCCOCCNC(=O)NCCCCNC(=O)NCCOCCOCCNS(=O)(=O)c2ccc(O[C@H]3c4cc(Cl)cc(Cl)c4C[C@@H]3N3CCN(C(=O)N(C)C)CC3)c(C)c2)ccc1O[C@H]1c2cc(Cl)cc(Cl)c2C[C@@H]1N1CCN(C(=O)N(C)C)CC1` [Example 77, 4-[(1S,2S)-4,6-dichloro-1-[4-[(2-[2-[2-([[4-([[2-(2-[2-[(4-[[(1S,2S)-4,6-dichloro-2-[4-(dimethylcarbamoyl)piperazin-1-yl]-2,3-dihydro-1H-inden-1-yl]oxy]-3-methylbenzene)sulfonamido]ethoxy]ethoxy)ethyl]carbamoyl]amino)butyl]carbamoyl]amino)ethoxy]ethoxy]ethyl)sulfamoyl]-2-methylphenoxy]-2,3-dihydro-1H-inden-2-yl]-N,N-dimethylpiperazine-1-carboxamide; bis(trifluoroacetic acid)], at NHE3 [1], the “% inhibition” value is “A (NHE3 < 40%)” and the pIC50 entry is given as “A (NHE3 pIC50 < 6)”. In addition, on NHE3 [2], the “% inhibition” value is on record as “C (>70%)” and the pIC50 entry is “A (NHE3 pIC50 < 6)”.
